# Laboratory results: paper PMC4979471 (Cell Death Discovery, 2015)
# Read-outs that look alike come from different tables or passages of the source.
# What was measured:
# Test in all cases: Kinase selectivity, P33-radiolabeled assay
# Assay type in all cases: biochemical
# [1] = target: T1, CAMK1d (Homo sapiens, UniProt Q8IU85); settings: 10 μM ATP
# T1 construct: purchased Reaction Biology Corp
# Outline: (§1)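 Activity relative to DMSO controls (%) was measured for compound at 10 μM. Assays ran at 10 μM ATP, in duplicate.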
# [2] = target: T2, CDK1/cyclin E (Homo sapiens, UniProt P06493); settings: 10 μM ATP
# T2 construct: purchased Reaction Biology Corp
# Outline: as §1
# [3] = target: T3, CHK1 (Homo sapiens, UniProt O14757); settings: 10 μM ATP
# T3 construct: purchased Reaction Biology Corp
# T3 sequence (O14757 1-476): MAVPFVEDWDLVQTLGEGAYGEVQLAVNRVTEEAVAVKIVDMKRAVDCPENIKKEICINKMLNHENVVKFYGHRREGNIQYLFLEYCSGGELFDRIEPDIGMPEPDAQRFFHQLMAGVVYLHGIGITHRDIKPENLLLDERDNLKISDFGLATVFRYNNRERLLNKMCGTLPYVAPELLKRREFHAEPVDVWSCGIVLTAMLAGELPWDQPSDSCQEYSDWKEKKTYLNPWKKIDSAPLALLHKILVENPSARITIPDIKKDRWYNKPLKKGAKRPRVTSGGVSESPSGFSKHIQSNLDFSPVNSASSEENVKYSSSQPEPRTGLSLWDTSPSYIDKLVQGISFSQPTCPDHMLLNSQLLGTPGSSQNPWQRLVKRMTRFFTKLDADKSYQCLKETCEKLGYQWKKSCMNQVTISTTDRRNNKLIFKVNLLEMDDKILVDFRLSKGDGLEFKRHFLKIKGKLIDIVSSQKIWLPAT
# Outline: as §1
# [4] = target: T4, EPHA4 (Homo sapiens, UniProt P54764); settings: 10 μM ATP
# T4 construct: purchased Reaction Biology Corp
# Outline: as §1
# [5] = target: T5, EPHB3 (Homo sapiens, UniProt P54753); settings: 10 μM ATP
# T5 construct: purchased Reaction Biology Corp
# T5 sequence (P54753 34-998): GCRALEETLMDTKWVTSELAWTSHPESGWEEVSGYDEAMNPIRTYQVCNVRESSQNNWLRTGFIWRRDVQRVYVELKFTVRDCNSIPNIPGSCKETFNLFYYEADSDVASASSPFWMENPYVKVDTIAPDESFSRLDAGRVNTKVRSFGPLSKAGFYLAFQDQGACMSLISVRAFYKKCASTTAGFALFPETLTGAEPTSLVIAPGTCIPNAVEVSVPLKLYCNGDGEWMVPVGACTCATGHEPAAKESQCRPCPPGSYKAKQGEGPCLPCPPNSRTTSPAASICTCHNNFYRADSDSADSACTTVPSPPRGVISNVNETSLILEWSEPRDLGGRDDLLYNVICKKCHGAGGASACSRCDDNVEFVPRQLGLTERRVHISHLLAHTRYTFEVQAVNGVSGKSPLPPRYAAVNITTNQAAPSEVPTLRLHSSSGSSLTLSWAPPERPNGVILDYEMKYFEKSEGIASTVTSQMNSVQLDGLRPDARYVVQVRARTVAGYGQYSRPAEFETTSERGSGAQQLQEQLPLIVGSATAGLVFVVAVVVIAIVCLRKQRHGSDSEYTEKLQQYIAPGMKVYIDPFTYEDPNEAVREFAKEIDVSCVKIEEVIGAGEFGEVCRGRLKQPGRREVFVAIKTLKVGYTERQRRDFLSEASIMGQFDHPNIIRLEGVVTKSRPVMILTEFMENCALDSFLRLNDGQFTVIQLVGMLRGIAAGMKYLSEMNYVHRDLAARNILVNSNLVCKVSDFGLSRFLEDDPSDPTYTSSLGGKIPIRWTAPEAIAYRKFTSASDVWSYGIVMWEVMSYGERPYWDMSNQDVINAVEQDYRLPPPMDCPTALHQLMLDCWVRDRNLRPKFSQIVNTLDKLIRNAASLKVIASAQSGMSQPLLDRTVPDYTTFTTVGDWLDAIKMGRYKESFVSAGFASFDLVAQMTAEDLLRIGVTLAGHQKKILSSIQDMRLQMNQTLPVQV
# Outline: as §1
# [6] = target: T6, FGR (Homo sapiens, UniProt P09769); settings: 10 μM ATP
# T6 construct: purchased Reaction Biology Corp
# Outline: as §1
# [7] = target: T7, FLT4/VEGFR3 (Homo sapiens, UniProt P35916); settings: 10 μM ATP
# T7 construct: purchased Reaction Biology Corp
# Outline: as §1
# [8] = target: T8, IGF1R (Homo sapiens, UniProt P08069)
# T8 construct: purchased Reaction Biology Corp
# Outline: as §1
# [9] = target: T9, MARK1 (Homo sapiens, UniProt Q9P0L2); settings: 10 μM ATP
# T9 construct: purchased Reaction Biology Corp
# Outline: as §1
# [10] = target: T10, MLCK/MYLK (Homo sapiens, UniProt Q15746); settings: 10 μM ATP
# T10 construct: purchased Reaction Biology Corp
# Outline: as §1
# [11] = target: T11, PKCd (Homo sapiens, UniProt Q05655); settings: 10 μM ATP
# T11 construct: purchased Reaction Biology Corp
# Outline: as §1
# [12] = target: T12, PKN3/PRK3 (Homo sapiens, UniProt Q6P5Z2); settings: 10 μM ATP
# T12 construct: purchased Reaction Biology Corp
# Outline: as §1
# [13] = target: T13, RSK3 (Homo sapiens, UniProt Q15349); settings: 10 μM ATP
# T13 construct: purchased Reaction Biology Corp
# Outline: as §1
# [14] = target: T14, STK16 (Homo sapiens, UniProt O75716); settings: 10 μM ATP
# T14 construct: purchased Reaction Biology Corp
# Outline: as §1
# [15] = target: T15, VRK2 (Homo sapiens, UniProt Q86Y07); settings: 10 μM ATP
# T15 construct: purchased Reaction Biology Corp
# Outline: as §1
# [16] = read-out: % Enzyme Activity (relative to DMSO controls) AVG
# [17] = read-out: % Enzyme Activity (relative to DMSO controls) Data 1
# [18] = read-out: % Enzyme Activity (relative to DMSO controls) Data 2
# T1 sequence (Q8IU85 whole entry): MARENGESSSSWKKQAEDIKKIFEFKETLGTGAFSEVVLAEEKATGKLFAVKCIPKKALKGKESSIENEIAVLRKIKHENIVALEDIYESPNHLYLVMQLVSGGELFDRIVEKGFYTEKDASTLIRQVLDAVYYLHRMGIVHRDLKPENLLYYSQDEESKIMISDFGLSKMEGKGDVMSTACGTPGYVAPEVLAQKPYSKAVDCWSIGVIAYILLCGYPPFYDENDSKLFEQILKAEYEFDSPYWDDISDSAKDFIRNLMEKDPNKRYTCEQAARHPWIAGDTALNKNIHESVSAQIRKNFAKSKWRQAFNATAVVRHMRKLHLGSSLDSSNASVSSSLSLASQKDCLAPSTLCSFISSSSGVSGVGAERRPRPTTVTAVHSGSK
# T9 sequence (Q9P0L2 whole entry): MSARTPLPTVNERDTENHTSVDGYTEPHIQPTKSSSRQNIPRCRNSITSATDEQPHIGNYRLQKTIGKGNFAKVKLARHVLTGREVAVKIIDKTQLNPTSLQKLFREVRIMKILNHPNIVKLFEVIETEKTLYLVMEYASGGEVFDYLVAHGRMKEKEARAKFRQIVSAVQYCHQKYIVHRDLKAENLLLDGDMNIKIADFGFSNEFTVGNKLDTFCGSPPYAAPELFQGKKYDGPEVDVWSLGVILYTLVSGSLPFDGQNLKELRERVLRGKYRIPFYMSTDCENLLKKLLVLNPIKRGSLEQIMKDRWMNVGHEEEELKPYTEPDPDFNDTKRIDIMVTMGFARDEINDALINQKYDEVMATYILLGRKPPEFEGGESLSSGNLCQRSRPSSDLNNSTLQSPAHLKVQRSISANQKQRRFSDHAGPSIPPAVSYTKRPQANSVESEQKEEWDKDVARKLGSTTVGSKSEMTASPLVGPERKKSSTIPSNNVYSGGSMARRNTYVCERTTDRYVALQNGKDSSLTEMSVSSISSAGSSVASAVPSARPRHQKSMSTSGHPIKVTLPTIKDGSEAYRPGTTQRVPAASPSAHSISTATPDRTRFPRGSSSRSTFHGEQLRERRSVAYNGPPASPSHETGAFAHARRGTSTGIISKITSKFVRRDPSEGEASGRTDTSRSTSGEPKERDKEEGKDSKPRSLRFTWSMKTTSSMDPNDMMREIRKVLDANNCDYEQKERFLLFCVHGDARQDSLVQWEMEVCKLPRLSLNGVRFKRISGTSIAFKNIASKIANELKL
# T2 sequence (P06493 whole entry): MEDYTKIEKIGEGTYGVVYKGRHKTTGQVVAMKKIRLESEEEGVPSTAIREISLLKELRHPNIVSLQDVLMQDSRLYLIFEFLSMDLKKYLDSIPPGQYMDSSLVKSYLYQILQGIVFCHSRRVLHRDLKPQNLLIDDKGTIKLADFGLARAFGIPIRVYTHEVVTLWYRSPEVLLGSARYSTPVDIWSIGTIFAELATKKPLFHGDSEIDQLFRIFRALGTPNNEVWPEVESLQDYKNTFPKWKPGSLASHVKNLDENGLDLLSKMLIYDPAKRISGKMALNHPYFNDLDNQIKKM
# T2 sequence (P24864 whole entry partner): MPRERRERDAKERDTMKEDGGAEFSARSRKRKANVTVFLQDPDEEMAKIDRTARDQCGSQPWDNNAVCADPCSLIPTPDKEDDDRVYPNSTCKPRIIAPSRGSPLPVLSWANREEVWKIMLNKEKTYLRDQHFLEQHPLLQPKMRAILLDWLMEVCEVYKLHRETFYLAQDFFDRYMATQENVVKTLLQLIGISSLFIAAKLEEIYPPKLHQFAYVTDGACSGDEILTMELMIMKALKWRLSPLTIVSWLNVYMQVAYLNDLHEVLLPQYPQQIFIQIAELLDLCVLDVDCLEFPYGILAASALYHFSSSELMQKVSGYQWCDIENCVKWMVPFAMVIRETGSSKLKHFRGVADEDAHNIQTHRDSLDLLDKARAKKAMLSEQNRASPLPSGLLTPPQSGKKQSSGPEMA
# T15 sequence (Q86Y07 whole entry): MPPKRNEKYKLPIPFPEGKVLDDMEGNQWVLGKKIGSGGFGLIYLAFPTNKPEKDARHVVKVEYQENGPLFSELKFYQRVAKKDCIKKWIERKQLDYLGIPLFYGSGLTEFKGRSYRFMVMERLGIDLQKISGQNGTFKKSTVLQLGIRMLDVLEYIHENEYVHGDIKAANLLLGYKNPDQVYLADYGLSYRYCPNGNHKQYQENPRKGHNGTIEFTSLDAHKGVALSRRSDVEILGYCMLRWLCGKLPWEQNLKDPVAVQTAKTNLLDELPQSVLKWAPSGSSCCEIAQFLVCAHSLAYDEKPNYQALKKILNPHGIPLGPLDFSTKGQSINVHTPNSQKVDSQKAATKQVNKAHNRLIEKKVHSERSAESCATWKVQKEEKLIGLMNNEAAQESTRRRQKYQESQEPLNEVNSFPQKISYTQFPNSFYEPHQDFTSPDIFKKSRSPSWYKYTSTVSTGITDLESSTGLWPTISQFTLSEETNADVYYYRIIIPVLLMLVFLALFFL
# T12 sequence (Q6P5Z2 whole entry): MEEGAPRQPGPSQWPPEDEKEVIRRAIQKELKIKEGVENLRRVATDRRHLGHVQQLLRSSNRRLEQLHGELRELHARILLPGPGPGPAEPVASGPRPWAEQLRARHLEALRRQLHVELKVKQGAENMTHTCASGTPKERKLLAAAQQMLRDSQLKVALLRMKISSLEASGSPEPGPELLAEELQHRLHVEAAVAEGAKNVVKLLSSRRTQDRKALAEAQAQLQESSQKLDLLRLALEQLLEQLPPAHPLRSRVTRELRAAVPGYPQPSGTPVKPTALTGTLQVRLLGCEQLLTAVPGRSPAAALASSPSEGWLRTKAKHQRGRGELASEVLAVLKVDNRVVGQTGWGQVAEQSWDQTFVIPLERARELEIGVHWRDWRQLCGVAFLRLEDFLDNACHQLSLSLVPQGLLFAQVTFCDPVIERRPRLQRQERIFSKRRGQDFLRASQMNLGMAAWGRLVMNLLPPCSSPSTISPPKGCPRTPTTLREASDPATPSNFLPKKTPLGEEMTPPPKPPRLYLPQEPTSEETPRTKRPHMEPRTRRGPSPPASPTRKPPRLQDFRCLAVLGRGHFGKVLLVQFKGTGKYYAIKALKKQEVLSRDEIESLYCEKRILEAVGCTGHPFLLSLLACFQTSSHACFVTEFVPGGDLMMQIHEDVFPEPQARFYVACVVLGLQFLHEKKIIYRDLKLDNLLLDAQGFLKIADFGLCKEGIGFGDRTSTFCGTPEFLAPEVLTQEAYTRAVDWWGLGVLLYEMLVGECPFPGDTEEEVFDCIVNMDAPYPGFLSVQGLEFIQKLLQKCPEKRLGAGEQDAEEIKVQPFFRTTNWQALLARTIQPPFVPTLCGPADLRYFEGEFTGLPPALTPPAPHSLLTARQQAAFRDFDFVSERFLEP
# T14 sequence (O75716 whole entry): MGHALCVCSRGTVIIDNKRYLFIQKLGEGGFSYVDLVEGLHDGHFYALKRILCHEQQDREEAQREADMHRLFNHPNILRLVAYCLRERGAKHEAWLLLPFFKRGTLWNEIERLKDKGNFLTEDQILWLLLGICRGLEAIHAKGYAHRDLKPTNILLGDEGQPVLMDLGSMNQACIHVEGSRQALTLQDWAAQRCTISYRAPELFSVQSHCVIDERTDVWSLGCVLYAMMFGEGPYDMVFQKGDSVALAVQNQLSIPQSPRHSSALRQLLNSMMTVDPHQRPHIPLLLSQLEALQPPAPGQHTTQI
# T11 sequence (Q05655 whole entry): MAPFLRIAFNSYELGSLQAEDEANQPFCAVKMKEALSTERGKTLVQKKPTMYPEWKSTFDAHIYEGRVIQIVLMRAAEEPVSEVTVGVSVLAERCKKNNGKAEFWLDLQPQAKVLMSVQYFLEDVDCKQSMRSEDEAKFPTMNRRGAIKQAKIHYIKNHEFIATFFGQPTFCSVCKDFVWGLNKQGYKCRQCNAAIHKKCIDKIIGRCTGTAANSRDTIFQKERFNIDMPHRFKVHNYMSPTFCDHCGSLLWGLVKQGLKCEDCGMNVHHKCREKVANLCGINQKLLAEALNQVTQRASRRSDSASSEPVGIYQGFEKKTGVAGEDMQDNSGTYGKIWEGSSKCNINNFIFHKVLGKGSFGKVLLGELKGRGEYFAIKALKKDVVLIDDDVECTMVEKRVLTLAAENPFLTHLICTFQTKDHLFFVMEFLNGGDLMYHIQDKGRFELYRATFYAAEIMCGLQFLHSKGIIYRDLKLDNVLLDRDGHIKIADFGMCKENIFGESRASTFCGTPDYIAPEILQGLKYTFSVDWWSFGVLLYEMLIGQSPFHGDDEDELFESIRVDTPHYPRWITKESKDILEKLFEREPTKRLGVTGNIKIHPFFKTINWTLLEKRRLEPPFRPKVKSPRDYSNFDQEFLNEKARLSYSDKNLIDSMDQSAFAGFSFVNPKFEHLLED
# T13 sequence (Q15349 whole entry): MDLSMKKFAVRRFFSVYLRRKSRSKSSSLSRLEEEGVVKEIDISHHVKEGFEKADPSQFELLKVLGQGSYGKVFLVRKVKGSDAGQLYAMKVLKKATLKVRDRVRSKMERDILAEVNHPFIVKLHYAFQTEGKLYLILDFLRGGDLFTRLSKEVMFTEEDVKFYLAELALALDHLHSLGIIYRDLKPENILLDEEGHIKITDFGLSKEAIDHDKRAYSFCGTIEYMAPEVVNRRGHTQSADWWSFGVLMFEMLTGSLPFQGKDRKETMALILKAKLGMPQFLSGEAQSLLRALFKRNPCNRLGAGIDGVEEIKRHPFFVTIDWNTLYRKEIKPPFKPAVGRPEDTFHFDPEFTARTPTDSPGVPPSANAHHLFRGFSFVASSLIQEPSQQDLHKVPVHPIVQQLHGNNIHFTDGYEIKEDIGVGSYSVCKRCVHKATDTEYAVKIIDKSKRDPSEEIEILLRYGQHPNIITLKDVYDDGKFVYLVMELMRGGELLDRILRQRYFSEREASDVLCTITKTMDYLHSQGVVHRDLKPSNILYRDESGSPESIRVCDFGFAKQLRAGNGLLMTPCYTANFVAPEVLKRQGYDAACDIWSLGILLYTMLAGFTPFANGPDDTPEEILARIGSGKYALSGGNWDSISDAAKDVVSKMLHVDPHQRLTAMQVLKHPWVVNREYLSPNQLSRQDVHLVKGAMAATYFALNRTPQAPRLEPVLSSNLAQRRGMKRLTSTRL
compound,measurement,setting,value
CC(C)(C)C(=O)N1N=CC[C@H]1c1ccccc1 [GSK′963],remaining activity at 10 µM,[1]; [16],90.2%
same,remaining activity at 10 µM,[1]; [17],88.6%
same,remaining activity at 10 µM,[1]; [18],91.8%
same,remaining activity at 10 µM,[2]; [16],98.2%
same,remaining activity at 10 µM,[2]; [17],102%
same,remaining activity at 10 µM,[2]; [18],94.7%
same,remaining activity at 10 µM,[3]; [16],115%
same,remaining activity at 10 µM,[3]; [17],122%
same,remaining activity at 10 µM,[3]; [18],109%
same,remaining activity at 10 µM,[4]; [16],99.2%
same,remaining activity at 10 µM,[4]; [17],99.2%
same,remaining activity at 10 µM,[4]; [18],99.2%
same,remaining activity at 10 µM,[5]; [16],105%
same,remaining activity at 10 µM,[5]; [17],103%
same,remaining activity at 10 µM,[5]; [18],107%
same,remaining activity at 10 µM,[6]; [16],107%
same,remaining activity at 10 µM,[6]; [17],106%
same,remaining activity at 10 µM,[6]; [18],108%
same,remaining activity at 10 µM,[7]; [16],103%
same,remaining activity at 10 µM,[7]; [17],105%
same,remaining activity at 10 µM,[7]; [18],102%
same,remaining activity at 10 µM,"[8]; 10 uM, 10 μM ATP, read-out: % Enzyme Activity (relative to DMSO controls) AVG",103%
same,remaining activity at 10 µM,"[8]; 10 uM, 10 μM ATP, read-out: % Enzyme Activity (relative to DMSO controls) Data 2",104%
same,remaining activity at 10 µM,[8]; [17],101%
same,remaining activity at 10 µM,[9]; [16],105%
same,remaining activity at 10 µM,[9]; [17],105%
same,remaining activity at 10 µM,[9]; [18],105%
same,remaining activity at 10 µM,[10]; [16],96.1%
same,remaining activity at 10 µM,[10]; [17],97.1%
same,remaining activity at 10 µM,[10]; [18],95.2%
same,remaining activity at 10 µM,[11]; [16],106%
same,remaining activity at 10 µM,[11]; [17],106%
same,remaining activity at 10 µM,[11]; [18],107%
same,remaining activity at 10 µM,[12]; [16],94%
same,remaining activity at 10 µM,[12]; [17],92.9%
same,remaining activity at 10 µM,[12]; [18],95.1%
same,remaining activity at 10 µM,[13]; [16],101%
same,remaining activity at 10 µM,[13]; [17],102%
same,remaining activity at 10 µM,[13]; [18],99.6%
same,remaining activity at 10 µM,[14]; [16],101%
same,remaining activity at 10 µM,[14]; [17],101%
same,remaining activity at 10 µM,[14]; [18],101%
same,remaining activity at 10 µM,[15]; [16],107%
same,remaining activity at 10 µM,[15]; [17],107%
same,remaining activity at 10 µM,[15]; [18],108%
